Assay results reported in patent publication US4988604A, “High contrast photographic element including an aryl sulfonamidophenyl hydrazide containing both thio and ethyleneoxy groups” (Eastman Kodak Company, priority 1990, dated 1991).

Experiments:
[1] = photographic performance of coatings containing nucleator: relative speed, dot quality, contrast (Example 1); settings: for Relative Speed: incorporated booster 64.6 mg/m^2, 1 minute at 35° C., pH 10.5; for DQ (contact screen exposed halftone dot quality): rated on a scale, 5 is excellent; for photographic speed (in words): comparison of tests of Table I
Procedure: Each coating used in obtaining the data provided in this example was prepared on a polyester support, using a monodispersed 0.24 μm AgBrI (2.5 mol % iodide) iridium-doped emulsion at 3.51 g/m^2 Ag, 2.54 g gel/m^2, and 1.08 g latex/m^2 where the latex is a copolymer of methyl acrylate, 2-acrylamido-2-methylpropane sulfonic acid, and 2-acetoacetoxyethylmethylacrylate. The silver halide emulsion was spectrally sensitized with 214 mg/Ag mol of anhydro-5,5'-dichloro-9-ethyl-3,3'-di-(3-sulfopropyl) oxacarbocyanine hydroxide, triethylene salt and the emulsion layer was overcoated with gelatin containing polymethylmethacrylate beads. The nucleating agent was added as a methanol solution to the emulsion melts at a level in millimoles (mM) per mole of silver as hereinafter indicated. An "incorporated booster" was added as a methanol solution in an amount of 64.6 milligrams per square meter of photographic element. The compound employed as the "incorporated booster" is represented by the formula: [drawing 8] where Pr represents n-propyl. Coatings were exposed for five seconds to a 3000° K. tungsten light source and processed for 1 minute at 35° C. in the developer solution.
To prepare the developer solution, a concentrate was prepared from the following ingredients:
The concentrate was diluted at a ratio of one part of concentrate to two parts of water to produce a working strength developing solution with a pH of 10.5.
*DQ = contact screen exposed halftone dot quality rated on a scale where
is poor and 5 is excellent.

[2] = chemical spread: dot diameter growth rate of coatings containing nucleator (Example 2); settings: for Dot Diameter Growth Rate: 10 to 60 seconds development
Text: Coatings similar to those described in Example 1 were examined for differences in the degree of image spreading, so-called chemical spread, that is inherent to high contrast, nucleation processes. The films were exposed 5 seconds with 3000K tungsten light through a 90%, 52 line per centimeter, round dot tint mask to produce hard 10% dots upon development for about 10 seconds in the developer described in Example 1. With extended development beyond 10 seconds (typical development times in practice are 30 to 60 seconds), the nucleation process entails fogging of unexposed silver halide at the dot edges and, in turn, causes the dot to grow in size. The growth of the dot was measured by monitoring the change in density of the developing tint with time from 10 to 60 seconds and converting the measured density to the equivalent dot diameter using the well known relation between integrated halftone density and dot size.

| SMILES | Relative Speed ([1]; nucleator 1.0 mM/Ag mole) | DQ (contact screen exposed halftone dot quality) ([1]; nucleator 1.0 mM/Ag mole) | Relative Speed ([1]; nucleator 2.0 mM/Ag mole) | DQ (contact screen exposed halftone dot quality) ([1]; nucleator 2.0 mM/Ag mole) | Dot Diameter Growth Rate ([2]; nucleator 2.0 mM/Ag mole) [micrometers/sec] | screen-exposed halftone dot quality (in words) ([1]; Example 1) | photographic speed (in words) [1] | Relative Speed ([1]; nucleator 0.5 mM/Ag mole) | DQ (contact screen exposed halftone dot quality) ([1]; nucleator 0.5 mM/Ag mole) | Relative Speed ([1]; nucleator 0.75 mM/Ag mole) | DQ (contact screen exposed halftone dot quality) ([1]; nucleator 0.75 mM/Ag mole) | dot diameter growth rate or chemical spread (in words) ([2]; Test 4 (one quarter the concentration) compared with Control Test A^1) | Dot Diameter Growth Rate ([2]; nucleator 0.50 mM/Ag mole) [micrometers/sec] | Dot Diameter Growth Rate ([2]; nucleator 1.0 mM/Ag mole) [micrometers/sec] |
| --- | --- | --- | --- | --- | --- | --- | --- | --- | --- | --- | --- | --- | --- | --- |
| CC(C)c1ccc(C(C)C)c(S(=O)(=O)Nc2ccc(NNC=O)cc2)c1 [Control A] | 87 | 3.5 | 100 | 4 | 0.60 |  |  |  |  |  |  |  |  |  |
| CCCCCCCCOCCOCCOCCOCCSCC(=O)Nc1c(C)ccc(S(=O)(=O)Nc2ccc(NNC=O)cc2)c1C [Compound I-6] |  |  |  |  |  | significant improvement in the screen-exposed halftone dot quality | the same speed was achieved in Test 1 even though the molar concentration of nucleator was one quarter of that used in Control Test B | 100 | 4.5 | 107 | 4.5 | much less | 0.30 | 0.41 |
| CCCCCCCCSCC(=O)Nc1c(C)ccc(S(=O)(=O)Nc2ccc(NNC=O)cc2)c1C [Control C] | 68 | 3.5 | 68 | 3.5 |  |  | significantly lowers the photographic speed relative to the non-thio control of Test A |  |  |  |  |  |  |  |
